Patent US8530512B2, “Broad spectrum gram-positive antimicrobials and anthelmintics with efficacy against drug-resistant strains and Mycobacterium species” (priority 2004, dated 2013)
In brackets after ≈: the same amount, converted by molar mass. Where two headings read alike, the source gives them in different places.

Legend:
[1] = system: Staphylococcus aureus ATCC 29213; experiment: microbe, parasite or virus in culture; type: cell-based; settings: Staphylococcus aureus, ATCC29213
[2] = system: Staphylococcus aureus MRSA MC-1; experiment: microbe, parasite or virus in culture; type: cell-based; settings: Staphylococcus aureus, MRSA
[3] = system: Enterococcus faecium VRE 1; experiment: organism not typed; type: cell-based; settings: for MIC E. faecium VRE 1, G+: Table 3; for MIC: read-out: MIC VRE
Streptococcus pyogenes = experiment: microbe, parasite or virus in culture; type: cell-based; settings: for MIC: Streptococcus pyogenes, per-compound listing, Example 6, read-out: MIC S. pyogenes; for MIC S. pyogenes, G+: Table 3
Bacillus cereus = experiment: microbe, parasite or virus in culture; type: cell-based; settings: for MIC: Bacillus cereus, per-compound listing, Example 6, read-out: MIC B. cereus; for MIC B. cereus, G+ (anthrax surrogate): Table 3
M. smegmatis = experiment: MIC assay; type: cell-based; settings: Mycolicibacterium smegmatis, read-out: MIC M. smegmatis
C. elegans = experiment: motility assay; type: in vivo; set-up: key to Movement score, 1/1600 / Movement score, 1/800 / Movement score, 1/400 / Movement score, 1/200 / Movement score, 1/100: normal (−); slow (+); very slow (++); not motile/paralyzed (+++); settings: for Movement score, 1/100: dilution 1/100 of stock (10.24 μg/μL; SK-03-92 1.024 μg/μL); for Movement score, 1/100 / Movement score, 1/200 / Movement score, 1/400 / Movement score, 1/800 / Movement score, 1/1600: Ive 1 ng/μL in all wells; for Movement score, 1/200: dilution 1/200 of stock (10.24 μg/μL; SK-03-92 1.024 μg/μL); for Movement score, 1/400: dilution 1/400 of stock (10.24 μg/μL; SK-03-92 1.024 μg/μL); for Movement score, 1/800: dilution 1/800 of stock (10.24 μg/μL; SK-03-92 1.024 μg/μL); for Movement score, 1/1600: dilution 1/1600 of stock (10.24 μg/μL; SK-03-92 1.024 μg/μL), overnight 20° C.; for effect on worms at the lowest concentrations tested: at least triplicate
C. elegans L1 larvae = experiment: developmental assay; type: in vivo; set-up: key to Developmental score, 1/1600 / Developmental score, 1/800 / Developmental score, 1/400 / Developmental score, 1/200 / Developmental score, 1/100: dead (+++); distressed (++); slightly delayed (+); the same as M9-only untreated wells (−); settings: after four days, Ive 1 ng/μL in each well; for Developmental score, 1/100: dilution 1/100; for Developmental score, 1/200: dilution 1/200; for Developmental score, 1/400: dilution 1/400; for Developmental score, 1/800: dilution 1/800; for Developmental score, 1/1600: dilution 1/1600
Mycobacterium avium = experiment: MIC assay; type: cell-based; settings: Mycobacterium avium, read-out: MIC M. avium
Mycobacterium chelonae = experiment: MIC assay; type: cell-based; settings: read-out: MIC M. chelonae
Mycobacterium fortuitum = experiment: MIC assay; type: cell-based; settings: Mycolicibacterium fortuitum, read-out: MIC M. fortuitum
[4] = system: Mycobacterium intracellulare; experiment: MIC assay; type: cell-based; settings: Mycobacterium intracellulare, read-out: MIC M. intracellulare
M. kansasii = experiment: MIC assay; type: cell-based; settings: Mycobacterium kansasii, read-out: MIC M. kansasii
[5] = per-compound listing, Example 6, read-out: MIC S. aureus
[6] = per-compound listing, Example 6
[7] = Table 6, read-out: MIC S. aureus ATCC 29213

| Compound | MIC [1, 5] | MIC ([2]; read-out: MIC MRSA) | MIC E. faecium VRE 1, G+ [3] | MIC [3] | MIC (Streptococcus pyogenes) | MIC S. pyogenes, G+ (Streptococcus pyogenes) | MIC (Bacillus cereus) | MIC B. cereus, G+ (anthrax surrogate) (Bacillus cereus) | MIC (M. smegmatis; [6]) | Movement score, 1/100 (C. elegans) | Movement score, 1/200 (C. elegans) | Movement score, 1/400 (C. elegans) | Movement score, 1/800 (C. elegans) | Movement score, 1/1600 (C. elegans) | Developmental score, 1/100 (C. elegans L1 larvae) | Developmental score, 1/200 (C. elegans L1 larvae) | Developmental score, 1/400 (C. elegans L1 larvae) | Developmental score, 1/800 (C. elegans L1 larvae) | Developmental score, 1/1600 (C. elegans L1 larvae) | MIC [1, 7] | also measured |
| --- | --- | --- | --- | --- | --- | --- | --- | --- | --- | --- | --- | --- | --- | --- | --- | --- | --- | --- | --- | --- | --- |
| COc1ccc(O/C=C/c2cc(O)cc(OC)c2)cc1 [Compound A6, 4-Methoxyphenyl-E-(3-hydroxy-5methoxy)-styryl ether] | 32 µg/mL (≈ 118 µM) | 64 µg/mL (≈ 235 µM) | 64 µg/mL (≈ 235 µM) | 64 µg/mL (≈ 235 µM) | 32 µg/mL (≈ 118 µM) | 32 µg/mL (≈ 118 µM) | 64 µg/mL (≈ 235 µM) | 64 µg/mL (≈ 235 µM) | 128 µg/mL (≈ 470 µM) | +++ | +++ | ++ | + | − | +++ | +++ | + | − | − |  |  |
| COc1cc(O)cc(/C=C/Oc2cccc(OC)c2)c1 [Compound A8, 3-Methoxyphenyl-E-(3-hydroxy-5-methoxy)-styryl ether] | 32 µg/mL (≈ 118 µM) | 64 µg/mL (≈ 235 µM) | 64 µg/mL (≈ 235 µM) | 64 µg/mL (≈ 235 µM) | 16 µg/mL (≈ 58.8 µM) | 16 µg/mL (≈ 58.8 µM) | 64 µg/mL (≈ 235 µM) | 64 µg/mL (≈ 235 µM) | 128 µg/mL (≈ 470 µM) | +++ | ++ | ++ | + | + | +++ | +++ | − | − | − |  |  |
| COc1cc(O)cc(/C=C/Oc2cccc(C)c2)c1 [Compound A9, 3-Methylphenyl-E-(3-hydroxy-5-methoxy)-styryl ether] | 16 µg/mL (≈ 62.4 µM) | 32 µg/mL (≈ 125 µM) | 32 µg/mL (≈ 125 µM) | 32 µg/mL (≈ 125 µM) | 32 µg/mL (≈ 125 µM) | 32 µg/mL (≈ 125 µM) | 32 µg/mL (≈ 125 µM) | 16 µg/mL (≈ 62.4 µM) | 64 µg/mL (≈ 250 µM) | +++ | +++ | ++ | ++ | + | +++ | +++ | +++ | − | − |  | effect on worms at the lowest concentrations tested (C. elegans): reduced motility, paralysis, or death |
| COc1cc(O)cc(/C=C/Oc2ccc(C)cc2)c1 [Compound A10, 4-Methylphenyl-E-(3-hydroxy-5-methoxy)-styryl ether] | 16 µg/mL (≈ 62.4 µM) | 32 µg/mL (≈ 125 µM) | 32 µg/mL (≈ 125 µM) | 32 µg/mL (≈ 125 µM) | 32 µg/mL (≈ 125 µM) | 32 µg/mL (≈ 125 µM) | 64 µg/mL (≈ 250 µM) | 64 µg/mL (≈ 250 µM) | > 128 µg/mL | +++ | +++ | +++ | ++ | + | +++ | +++ | ++ | − | − |  | effect on worms at the lowest concentrations tested (C. elegans): reduced motility, paralysis, or death |
| COc1cc(O)cc(/C=C/c2ccc(O)cc2)c1 [SK-04-02] |  |  |  |  |  |  |  |  |  |  |  |  |  |  |  |  |  |  |  | 32 µg/mL (≈ 132 µM) | MIC ([2]; Table 6, read-out: MIC S. aureus MC-1): 32 µg/mL (≈ 132 µM); MIC (M. smegmatis): 64 µg/mL (≈ 264 µM); MIC (Mycobacterium avium): 16 µg/mL (≈ 66 µM); MIC (Mycobacterium chelonae): 32 µg/mL (≈ 132 µM); MIC (Mycobacterium fortuitum): 64 µg/mL (≈ 264 µM); MIC [4]: 16 µg/mL (≈ 66 µM); MIC (M. kansasii): 32 µg/mL (≈ 132 µM) |
| COc1cc(O)cc(/C=C/c2cccc(O)c2)c1 [SK-04-03] |  |  |  |  |  |  |  |  |  | ++ | ++ | + | + | − | +++ | + | − | − | − | 32 µg/mL (≈ 132 µM) | MIC ([2]; read-out: MIC S. aureus MC-1): 16 µg/mL (≈ 66 µM); MIC (M. smegmatis; Table 6): 64 µg/mL (≈ 264 µM); MIC (Mycobacterium avium; Table 6): 8 µg/mL (≈ 33 µM); MIC (Mycobacterium chelonae; Table 6): 64 µg/mL (≈ 264 µM); MIC (Mycobacterium fortuitum; Table 6): 64 µg/mL (≈ 264 µM); MIC ([4]; Table 6): 16 µg/mL (≈ 66 µM); MIC (M. kansasii; Table 6): 64 µg/mL (≈ 264 µM) |
| COc1cc(O)cc(C#Cc2ccccc2)c1 [SK-04-08] |  |  |  |  |  |  |  |  |  | +++ | +++ | ++ | + | + | +++ | +++ | − | − | − | 32 µg/mL (≈ 143 µM) | MIC ([2]; read-out: MIC S. aureus MC-1): 1 µg/mL (≈ 4.46 µM); MIC (M. smegmatis; Table 6): 64 µg/mL (≈ 285 µM); MIC (Mycobacterium avium; Table 6): 16 µg/mL (≈ 71.3 µM); MIC (Mycobacterium fortuitum; Table 6): 32 µg/mL (≈ 143 µM); MIC ([4]; Table 6): 16 µg/mL (≈ 71.3 µM); MIC (M. kansasii; Table 6): 32 µg/mL (≈ 143 µM) |
